# In PubChem BioAssay AID2060503 (Molecular Pharmacology Branch, DTP, NCI, 2025):
# Tested on: 817829-284-R-J1-PDC complex spheroids, viability
# Assay: Anticancer human tumor 817829-284-R-J1-PDC patient-derived colon adenocarcinoma cell line growth inhibition [GQUAD]
# Details: second compound 0.316 µM; first compound 0.316 µM; active compounds read low
# Outline: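 Viability of tumor cells grown as complex spheroids with endothelial and stromal cells, exposed to drug combinations. Top concentration at or near clinical Cmax (else 10 microM), diluted in half-log increments.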
# 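Also: spheroids exposed to agents for 7 days before readout; percent viability relative to DMSO vehicle control taken as 100%.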
row,SMILES,"viability, T/C"
1,Cc1[nH]c2ccccc2c1CCNCc1ccc(/C=C/C(=O)NO)cc1 + CN(C)c1ccc(Nc2c3ccc(NC(=O)CCN4CCCC4)cc3nc3cc(NC(=O)CCN4CCCC4)ccc23)cc1,0.11%
2,O=C(NO)c1cnc(N2CCN(S(=O)(=O)c3ccc4ccccc4c3)CC2)nc1 + CN(C)c1ccc(Nc2c3ccc(NC(=O)CCN4CCCC4)cc3nc3cc(NC(=O)CCN4CCCC4)ccc23)cc1,5.37%
3,CC1COCCN1c1cc(C2(O)CC3CCC(C2)O3)c2cnn(-c3ccn[nH]3)c2n1 (stereo unspecified) + Cc1[nH]c2ccc(F)cc2c1-c1nc2c3cccnc3c3ncccc3c2[nH]1,6.99%

# Same assay, conditions: second compound 0.316 µM; first compound 1 µM; active compounds read low
row,SMILES,"viability, T/C"
1,C=CCn1c(=O)c2cnc(Nc3ccc(N4CCN(C)CC4)cc3)nc2n1-c1cccc(C(C)(C)O)n1 + CN(C)c1ccc(Nc2c3ccc(NC(=O)CCN4CCCC4)cc3nc3cc(NC(=O)CCN4CCCC4)ccc23)cc1,9.34%
2,CCCS(=O)(=O)Nc1ccc(F)c(C(=O)c2c[nH]c3ncc(-c4ccc(Cl)cc4)cc23)c1F + CN(C)c1ccc(Nc2c3ccc(NC(=O)CCN4CCCC4)cc3nc3cc(NC(=O)CCN4CCCC4)ccc23)cc1,111%
3,COc1ncnc(C2CC2)c1-c1ncc2cnn(Cc3ccc(-c4nc(C(F)(F)F)cn4C(C)C)cc3)c2n1 + CN(C)c1ccc(Nc2c3ccc(NC(=O)CCN4CCCC4)cc3nc3cc(NC(=O)CCN4CCCC4)ccc23)cc1,107%
4,O=C(NO)c1cnc(N2CCN(S(=O)(=O)c3ccc4ccccc4c3)CC2)nc1 + CN(C)c1ccc(Nc2c3ccc(NC(=O)CCN4CCCC4)cc3nc3cc(NC(=O)CCN4CCCC4)ccc23)cc1,0.23%
5,CC1COCCN1c1cc(C2(O)CC3CCC(C2)O3)c2cnn(-c3ccn[nH]3)c2n1 (stereo unspecified) + Cc1[nH]c2ccc(F)cc2c1-c1nc2c3cccnc3c3ncccc3c2[nH]1,5.84%

# Same assay, conditions: second compound 0.316 µM; first compound 3.16 µM; active compounds read low
row,SMILES,"viability, T/C"
1,C=CCn1c(=O)c2cnc(Nc3ccc(N4CCN(C)CC4)cc3)nc2n1-c1cccc(C(C)(C)O)n1 + CN(C)c1ccc(Nc2c3ccc(NC(=O)CCN4CCCC4)cc3nc3cc(NC(=O)CCN4CCCC4)ccc23)cc1,7.03%
2,CCCS(=O)(=O)Nc1ccc(F)c(C(=O)c2c[nH]c3ncc(-c4ccc(Cl)cc4)cc23)c1F + CN(C)c1ccc(Nc2c3ccc(NC(=O)CCN4CCCC4)cc3nc3cc(NC(=O)CCN4CCCC4)ccc23)cc1,84%
3,COc1ncnc(C2CC2)c1-c1ncc2cnn(Cc3ccc(-c4nc(C(F)(F)F)cn4C(C)C)cc3)c2n1 + CN(C)c1ccc(Nc2c3ccc(NC(=O)CCN4CCCC4)cc3nc3cc(NC(=O)CCN4CCCC4)ccc23)cc1,105%
4,O=C(NO)c1cnc(N2CCN(S(=O)(=O)c3ccc4ccccc4c3)CC2)nc1 + CN(C)c1ccc(Nc2c3ccc(NC(=O)CCN4CCCC4)cc3nc3cc(NC(=O)CCN4CCCC4)ccc23)cc1,0.11%
5,CC1COCCN1c1cc(C2(O)CC3CCC(C2)O3)c2cnn(-c3ccn[nH]3)c2n1 (stereo unspecified) + Cc1[nH]c2ccc(F)cc2c1-c1nc2c3cccnc3c3ncccc3c2[nH]1,5.13%

# Same assay, conditions: second compound 0.316 µM; first compound 10 µM; active compounds read low
row,SMILES,"viability, T/C"
1,C=CCn1c(=O)c2cnc(Nc3ccc(N4CCN(C)CC4)cc3)nc2n1-c1cccc(C(C)(C)O)n1 + CN(C)c1ccc(Nc2c3ccc(NC(=O)CCN4CCCC4)cc3nc3cc(NC(=O)CCN4CCCC4)ccc23)cc1,5.88%
2,CCCS(=O)(=O)Nc1ccc(F)c(C(=O)c2c[nH]c3ncc(-c4ccc(Cl)cc4)cc23)c1F + CN(C)c1ccc(Nc2c3ccc(NC(=O)CCN4CCCC4)cc3nc3cc(NC(=O)CCN4CCCC4)ccc23)cc1,20.9%
3,COc1ncnc(C2CC2)c1-c1ncc2cnn(Cc3ccc(-c4nc(C(F)(F)F)cn4C(C)C)cc3)c2n1 + CN(C)c1ccc(Nc2c3ccc(NC(=O)CCN4CCCC4)cc3nc3cc(NC(=O)CCN4CCCC4)ccc23)cc1,119%
4,O=C(NO)c1cnc(N2CCN(S(=O)(=O)c3ccc4ccccc4c3)CC2)nc1 + CN(C)c1ccc(Nc2c3ccc(NC(=O)CCN4CCCC4)cc3nc3cc(NC(=O)CCN4CCCC4)ccc23)cc1,0.15%
5,CC1COCCN1c1cc(C2(O)CC3CCC(C2)O3)c2cnn(-c3ccn[nH]3)c2n1 (stereo unspecified) + Cc1[nH]c2ccc(F)cc2c1-c1nc2c3cccnc3c3ncccc3c2[nH]1,3.71%

# Same assay, conditions: second compound 1 µM; first compound 0.000999 µM; active compounds read low
row,SMILES,"viability, T/C"
1,Cc1[nH]c2ccccc2c1CCNCc1ccc(/C=C/C(=O)NO)cc1 + CN(C)c1ccc(Nc2c3ccc(NC(=O)CCN4CCCC4)cc3nc3cc(NC(=O)CCN4CCCC4)ccc23)cc1,104%

# Same assay, conditions: second compound 1 µM; first compound 0.00316 µM; active compounds read low
row,SMILES,"viability, T/C"
1,Cc1[nH]c2ccccc2c1CCNCc1ccc(/C=C/C(=O)NO)cc1 + CN(C)c1ccc(Nc2c3ccc(NC(=O)CCN4CCCC4)cc3nc3cc(NC(=O)CCN4CCCC4)ccc23)cc1,100%

# Same assay, conditions: second compound 1 µM; first compound 0.00999 µM; active compounds read low
row,SMILES,"viability, T/C"
1,Cc1[nH]c2ccccc2c1CCNCc1ccc(/C=C/C(=O)NO)cc1 + CN(C)c1ccc(Nc2c3ccc(NC(=O)CCN4CCCC4)cc3nc3cc(NC(=O)CCN4CCCC4)ccc23)cc1,126%

# Same assay, conditions: second compound 1 µM; first compound 0.0316 µM; active compounds read low
row,SMILES,"viability, T/C"
1,C=CCn1c(=O)c2cnc(Nc3ccc(N4CCN(C)CC4)cc3)nc2n1-c1cccc(C(C)(C)O)n1 + CN(C)c1ccc(Nc2c3ccc(NC(=O)CCN4CCCC4)cc3nc3cc(NC(=O)CCN4CCCC4)ccc23)cc1,99.8%
2,CCCS(=O)(=O)Nc1ccc(F)c(C(=O)c2c[nH]c3ncc(-c4ccc(Cl)cc4)cc23)c1F + CN(C)c1ccc(Nc2c3ccc(NC(=O)CCN4CCCC4)cc3nc3cc(NC(=O)CCN4CCCC4)ccc23)cc1,109%
3,COc1ncnc(C2CC2)c1-c1ncc2cnn(Cc3ccc(-c4nc(C(F)(F)F)cn4C(C)C)cc3)c2n1 + CN(C)c1ccc(Nc2c3ccc(NC(=O)CCN4CCCC4)cc3nc3cc(NC(=O)CCN4CCCC4)ccc23)cc1,107%
4,Cc1[nH]c2ccccc2c1CCNCc1ccc(/C=C/C(=O)NO)cc1 + CN(C)c1ccc(Nc2c3ccc(NC(=O)CCN4CCCC4)cc3nc3cc(NC(=O)CCN4CCCC4)ccc23)cc1,88.4%
5,O=C(NO)c1cnc(N2CCN(S(=O)(=O)c3ccc4ccccc4c3)CC2)nc1 + CN(C)c1ccc(Nc2c3ccc(NC(=O)CCN4CCCC4)cc3nc3cc(NC(=O)CCN4CCCC4)ccc23)cc1,103%
6,CC1COCCN1c1cc(C2(O)CC3CCC(C2)O3)c2cnn(-c3ccn[nH]3)c2n1 (stereo unspecified) + Cc1[nH]c2ccc(F)cc2c1-c1nc2c3cccnc3c3ncccc3c2[nH]1,30.4%

# Same assay, conditions: second compound 1 µM; first compound 0.0999 µM; active compounds read low
row,SMILES,"viability, T/C"
1,Cc1[nH]c2ccccc2c1CCNCc1ccc(/C=C/C(=O)NO)cc1 + CN(C)c1ccc(Nc2c3ccc(NC(=O)CCN4CCCC4)cc3nc3cc(NC(=O)CCN4CCCC4)ccc23)cc1,4.37%

# Same assay, conditions: second compound 1 µM; first compound 0.1 µM; active compounds read low
row,SMILES,"viability, T/C"
1,C=CCn1c(=O)c2cnc(Nc3ccc(N4CCN(C)CC4)cc3)nc2n1-c1cccc(C(C)(C)O)n1 + CN(C)c1ccc(Nc2c3ccc(NC(=O)CCN4CCCC4)cc3nc3cc(NC(=O)CCN4CCCC4)ccc23)cc1,102%
2,CCCS(=O)(=O)Nc1ccc(F)c(C(=O)c2c[nH]c3ncc(-c4ccc(Cl)cc4)cc23)c1F + CN(C)c1ccc(Nc2c3ccc(NC(=O)CCN4CCCC4)cc3nc3cc(NC(=O)CCN4CCCC4)ccc23)cc1,110%
3,COc1ncnc(C2CC2)c1-c1ncc2cnn(Cc3ccc(-c4nc(C(F)(F)F)cn4C(C)C)cc3)c2n1 + CN(C)c1ccc(Nc2c3ccc(NC(=O)CCN4CCCC4)cc3nc3cc(NC(=O)CCN4CCCC4)ccc23)cc1,112%
